Measurements: ChEMBL document CHEMBL1201862, “PubChem BioAssay data set” (2004)
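1) Cells in 96-well plates. 2) Compound, 48 h, 5 concentrations. 3) Linear interpolation between surrounding doses. 4) Unreached endpoint = highest concentration. At the GI50, growth is halved.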 Activity calls are given as the source filed them. No stated cut-off is given here; in the data, active = GI50 up to about 1.1 µM and inactive = higher.

Key:
Assay in all cases: inhibition of tumour cell growth, NCI panel, 48 h
DMS-114 = test system: DMS-114
UO-31 = test system: UO-31
SNB-75 = test system: SNB-75
SF-295 = test system: SF-295
OVCAR-4 = test system: OVCAR-4
M14 = test system: M14
NCI-H226 = test system: NCI-H226
M19-MEL = test system: M19-MEL
OVCAR-3 = test system: OVCAR-3
OVCAR-8 = test system: OVCAR-8
SR = test system: SR
SF-539 = test system: SF-539
SK-MEL-28 = test system: SK-MEL-28
786-0 = test system: 786-0
NCI-H23 = test system: NCI-H23
SNB-19 = test system: SNB-19
SK-MEL-2 = test system: SK-MEL-2
HCT-15 = test system: HCT-15
LXFL 529 = test system: LXFL 529
SK-MEL-5 = test system: SK-MEL-5
HOP-92 = test system: HOP-92
HT-29 = test system: HT-29
RXF 393 = test system: RXF 393
OVCAR-5 = test system: OVCAR-5
CAKI-1 = test system: CAKI-1
K562 = test system: K562
RPMI-8226 = test system: RPMI-8226
NCI-H522 = test system: NCI-H522
UACC-257 = test system: UACC-257
ACHN = test system: ACHN
U-251 = test system: U-251
HCT-116 = test system: HCT-116
HL-60 = test system: HL-60
SF-268 = test system: SF-268
Malme-3M = test system: Malme-3M
SNB-78 = test system: SNB-78
CCRF-CEM = test system: CCRF-CEM
A498 = test system: A498
TK-10 = test system: TK-10
MOLT-4 = test system: MOLT-4
NCI-H460 = test system: NCI-H460
HCC 2998 = test system: HCC 2998
A549 = test system: A549
EKVX = test system: EKVX
SN12C = test system: SN12C
SW-620 = test system: SW-620
LOX IMVI = test system: LOX IMVI
UACC-62 = test system: UACC-62
XF498 = test system: XF498
IGROV-1 = test system: IGROV-1
KM-20L2 = test system: KM-20L2
DLD-1 = test system: DLD-1
DMS-273 = test system: DMS-273
NCI/ADR-RES = test system: NCI/ADR-RES
HOP-18 = test system: HOP-18
HOP-62 = test system: HOP-62
SK-OV-3 = test system: SK-OV-3
KM12 = test system: KM12
COLO 205 = test system: COLO 205
MCF7 = test system: MCF7

Question: Which GI50 (DMS-114) does the source give for `Cc1cccc(/N=C2\NC(=O)C(CC(=O)Nc3ccc(C)cc3C)S2)c1` (stereo unspecified) here?
Answer: 49.8 µM (inactive)

Question: What about the GI50 (UO-31) of the same compound?
Answer: 66.7 µM (inactive)

Question: What about the GI50 (SNB-75) of the same compound?
Answer: > 100 µM (inactive)

Question: And the GI50 (SF-295)?
Answer: 61.9 µM (inactive)

Question: And the GI50 (OVCAR-4)?
Answer: 48.5 µM (inactive)

Question: And the GI50 (M14)?
Answer: > 100 µM (inactive)

Question: What about the GI50 (NCI-H226) of the same compound?
Answer: 84.3 µM (inactive)

Question: And the GI50 (M19-MEL)?
Answer: > 100 µM (inactive)

Question: And the GI50 (OVCAR-3)?
Answer: 69 µM (inactive)

Question: And the GI50 (OVCAR-8)?
Answer: 70.6 µM (inactive)

Question: What about the GI50 (SR) of the same compound?
Answer: 52.6 µM (inactive)

Question: And the GI50 (SF-539)?
Answer: > 100 µM (inactive)

Question: And the GI50 (SK-MEL-28)?
Answer: > 100 µM (inactive)

Question: And the GI50 (786-0)?
Answer: > 100 µM (inactive)

Question: What about the GI50 (NCI-H23) of the same compound?
Answer: 57 µM (inactive)

Question: What about the GI50 (SNB-19) of the same compound?
Answer: 74.8 µM (inactive)

Question: And the GI50 (SK-MEL-2)?
Answer: > 100 µM (inactive)

Question: What about the GI50 (HCT-15) of the same compound?
Answer: > 100 µM

Question: What about the GI50 (LXFL 529) of the same compound?
Answer: > 100 µM (inactive)

Question: And the GI50 (SK-MEL-5)?
Answer: 94 µM (inactive)

Question: And the GI50 (HOP-92)?
Answer: 55.7 µM (inactive)

Question: What about the GI50 (HT-29) of the same compound?
Answer: > 100 µM (inactive)

Question: And the GI50 (RXF 393)?
Answer: > 100 µM (inactive)

Question: And the GI50 (OVCAR-5)?
Answer: 88.1 µM (inactive)

Question: And the GI50 (CAKI-1)?
Answer: 60.4 µM (inactive)

Question: What about the GI50 (K562) of the same compound?
Answer: 65.8 µM (inactive)

Question: And the GI50 (RPMI-8226)?
Answer: 55.3 µM (inactive)

Question: And the GI50 (NCI-H522)?
Answer: 64.3 µM (inactive)

Question: What about the GI50 (UACC-257) of the same compound?
Answer: > 100 µM (inactive)

Question: What about the GI50 (ACHN) of the same compound?
Answer: > 100 µM (inactive)

Question: And the GI50 (U-251)?
Answer: > 100 µM (inactive)

Question: What about the GI50 (HCT-116) of the same compound?
Answer: > 100 µM (inactive)

Question: And the GI50 (HL-60)?
Answer: > 100 µM (inactive)

Question: What about the GI50 (SF-268) of the same compound?
Answer: > 100 µM (inactive)

Question: What about the GI50 (Malme-3M) of the same compound?
Answer: > 100 µM (inactive)

Question: What about the GI50 (SNB-78) of the same compound?
Answer: > 100 µM (inactive)

Question: What about the GI50 (CCRF-CEM) of the same compound?
Answer: 92 µM (inactive)

Question: And the GI50 (A498)?
Answer: > 100 µM (inactive)

Question: What about the GI50 (TK-10) of the same compound?
Answer: > 100 µM (inactive)

Question: And the GI50 (MOLT-4)?
Answer: 40.4 µM (inactive)

Question: And the GI50 (NCI-H460)?
Answer: > 100 µM (inactive)

Question: And the GI50 (HCC 2998)?
Answer: > 100 µM (inactive)

Question: What about the GI50 (A549) of the same compound?
Answer: > 100 µM (inactive)

Question: What about the GI50 (EKVX) of the same compound?
Answer: 47.1 µM (inactive)

Question: And the GI50 (SN12C)?
Answer: > 100 µM (inactive)

Question: What about the GI50 (SW-620) of the same compound?
Answer: > 100 µM (inactive)

Question: And the GI50 (LOX IMVI)?
Answer: > 100 µM (inactive)

Question: What about the GI50 (UACC-62) of the same compound?
Answer: 68.2 µM (inactive)

Question: What about the GI50 (XF498) of the same compound?
Answer: 53.1 µM (inactive)

Question: And the GI50 (IGROV-1)?
Answer: > 100 µM (inactive)

Question: And the GI50 (KM-20L2)?
Answer: 97.7 µM (inactive)

Question: What about the GI50 (DLD-1) of the same compound?
Answer: > 100 µM (inactive)

Question: What about the GI50 (DMS-273) of the same compound?
Answer: > 100 µM (inactive)

Question: How did the GI50 (NCI/ADR-RES) turn out when `O=P1(Oc2ccc(Cl)cc2Cl)Oc2ccc3ccccc3c2-c2c(ccc3ccccc23)O1` was run?
Answer: > 68.5 µM (inactive)

Question: And the GI50 (UO-31)?
Answer: 20.4 µM (inactive)

Question: What about the GI50 (SNB-75) of the same compound?
Answer: 31.5 µM (inactive)

Question: And the GI50 (SF-295)?
Answer: 34.8 µM (inactive)

Question: What about the GI50 (OVCAR-4) of the same compound?
Answer: 27.9 µM (inactive)

Question: What about the GI50 (HOP-18) of the same compound?
Answer: 61.5 µM (inactive)

Question: And the GI50 (NCI-H226)?
Answer: 23.3 µM (inactive)

Question: And the GI50 (M19-MEL)?
Answer: 19.9 µM (inactive)

Question: What about the GI50 (OVCAR-3) of the same compound?
Answer: 22.5 µM (inactive)

Question: What about the GI50 (OVCAR-8) of the same compound?
Answer: 40.1 µM (inactive)

Question: And the GI50 (SF-539)?
Answer: 21.6 µM (inactive)

Question: What about the GI50 (SK-MEL-28) of the same compound?
Answer: 32.5 µM (inactive)

Question: And the GI50 (HOP-62)?
Answer: 20.2 µM (inactive)

Question: What about the GI50 (NCI-H23) of the same compound?
Answer: 29.8 µM (inactive)

Question: What about the GI50 (SNB-19) of the same compound?
Answer: 29.5 µM (inactive)

Question: What about the GI50 (SK-MEL-2) of the same compound?
Answer: 18.7 µM (inactive)

Question: And the GI50 (HCT-15)?
Answer: 26.5 µM

Question: And the GI50 (SK-MEL-5)?
Answer: 49.5 µM (inactive)

Question: And the GI50 (HOP-92)?
Answer: 22.4 µM (inactive)

Question: What about the GI50 (HT-29) of the same compound?
Answer: 42.1 µM (inactive)

Question: And the GI50 (RXF 393)?
Answer: 16 µM (inactive)

Question: And the GI50 (OVCAR-5)?
Answer: 59.7 µM (inactive)

Question: What about the GI50 (CAKI-1) of the same compound?
Answer: 21 µM (inactive)

Question: What about the GI50 (K562) of the same compound?
Answer: 31.4 µM (inactive)

Question: What about the GI50 (RPMI-8226) of the same compound?
Answer: 18.2 µM (inactive)

Question: What about the GI50 (NCI-H522) of the same compound?
Answer: 19.5 µM (inactive)

Question: And the GI50 (UACC-257)?
Answer: 59 µM (inactive)

Question: What about the GI50 (SK-OV-3) of the same compound?
Answer: 59.7 µM (inactive)

Question: What about the GI50 (U-251) of the same compound?
Answer: 21.1 µM (inactive)

Question: What about the GI50 (HCT-116) of the same compound?
Answer: 26.5 µM (inactive)

Question: And the GI50 (HL-60)?
Answer: 22.9 µM (inactive)

Question: And the GI50 (SF-268)?
Answer: 34.7 µM (inactive)

Question: And the GI50 (Malme-3M)?
Answer: 21.9 µM (inactive)

Question: And the GI50 (SNB-78)?
Answer: 32.4 µM (inactive)

Question: What about the GI50 (CCRF-CEM) of the same compound?
Answer: 28 µM (inactive)

Question: And the GI50 (A498)?
Answer: 24.8 µM (inactive)

Question: And the GI50 (MOLT-4)?
Answer: 19.9 µM (inactive)

Question: And the GI50 (KM12)?
Answer: 32.9 µM (inactive)

Question: And the GI50 (NCI-H460)?
Answer: 32.4 µM (inactive)

Question: What about the GI50 (HCC 2998) of the same compound?
Answer: 24.9 µM (inactive)

Question: And the GI50 (A549)?
Answer: 49 µM (inactive)

Question: And the GI50 (EKVX)?
Answer: 25.4 µM (inactive)

Question: And the GI50 (SN12C)?
Answer: 30.8 µM (inactive)

Question: What about the GI50 (COLO 205) of the same compound?
Answer: 46.5 µM (inactive)

Question: What about the GI50 (SW-620) of the same compound?
Answer: 32.4 µM (inactive)

Question: And the GI50 (LOX IMVI)?
Answer: 24 µM (inactive)

Question: And the GI50 (UACC-62)?
Answer: 26.7 µM (inactive)

Question: What about the GI50 (XF498) of the same compound?
Answer: 24.5 µM (inactive)

Question: What about the GI50 (IGROV-1) of the same compound?
Answer: 26.9 µM (inactive)

Question: What about the GI50 (KM-20L2) of the same compound?
Answer: 33.5 µM (inactive)

Question: What about the GI50 (MCF7) of the same compound?
Answer: 33.7 µM (inactive)

Question: And the GI50 (DLD-1)?
Answer: 32.1 µM (inactive)

Question: What about the GI50 (DMS-273) of the same compound?
Answer: 41.3 µM (inactive)
